From patent US20250134907A1, “FUSED DIAZEPINES AS AGONISTS OF THE INSULIN-LIKE 3 (INSL3) PEPTIDE RECEPTOR RXFP2 AND METHODS OF USE THEREOF” (The United States of America,as represented by the …, priority 2022, published 2025)

Experiments:
RXFP2 [1] = target: T1, RXFP2 (Homo sapiens, UniProt Q8WXD0); assay: Luciferase cAMP assay in HEK-CRE-Luc-RXFP2 cells; type: cell-based; conditions: for EC50: 3 h treatment; for Emax (% Eff vs. 10 nM INSL3): relative to 10 nM INSL3 response
T1 construct: expressed in transfected cells
T1 sequence (Q8WXD0 whole entry): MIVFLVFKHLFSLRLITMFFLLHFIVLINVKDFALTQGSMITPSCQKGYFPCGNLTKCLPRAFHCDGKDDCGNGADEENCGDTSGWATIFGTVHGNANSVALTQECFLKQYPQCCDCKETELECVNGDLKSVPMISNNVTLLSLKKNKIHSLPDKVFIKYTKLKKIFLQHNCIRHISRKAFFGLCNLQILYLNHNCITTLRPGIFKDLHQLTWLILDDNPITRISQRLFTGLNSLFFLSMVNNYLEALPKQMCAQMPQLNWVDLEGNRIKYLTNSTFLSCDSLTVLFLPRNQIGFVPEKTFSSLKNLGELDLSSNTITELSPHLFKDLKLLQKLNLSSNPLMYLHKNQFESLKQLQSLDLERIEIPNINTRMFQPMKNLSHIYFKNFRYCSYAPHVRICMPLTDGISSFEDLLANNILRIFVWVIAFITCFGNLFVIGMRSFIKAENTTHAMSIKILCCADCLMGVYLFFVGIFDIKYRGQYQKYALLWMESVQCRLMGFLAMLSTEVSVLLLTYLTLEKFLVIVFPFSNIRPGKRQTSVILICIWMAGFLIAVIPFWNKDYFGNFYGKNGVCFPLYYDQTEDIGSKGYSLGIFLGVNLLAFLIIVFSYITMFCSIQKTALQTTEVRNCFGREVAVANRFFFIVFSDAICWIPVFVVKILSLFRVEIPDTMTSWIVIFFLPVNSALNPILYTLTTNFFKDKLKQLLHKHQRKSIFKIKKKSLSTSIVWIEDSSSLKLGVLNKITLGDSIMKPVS
Description: A confirmatory cAMP assay was done to eliminate false positives using a HEK293T-CRE-Luc cell line stably transfected with RXFP2 (HEK-CRE-Luc-RXFP2), as this cell line expresses luciferase under the control of the cAMP response element (CRE). Activation of the RXFP2 receptor increases intracellular cAMP levels, inducing luciferase transcription in the nucleus. Thus, luciferase activity in these cells is proportional to cAMP accumulation. For this assay, cells were seeded in 96-well flat-bottom opaque plates at 20,000 cells/well in 60 μL/well of serum-free DMEM medium and allowed to attach overnight at 37° C., 5% CO2. The next morning, cells were treated with 1 μL/well of compound (25 μM-0.21 nM), 1 μM forskolin, or DMSO vehicle. Cells were also treated with 4 μL of INSL3 (100-0.01 nM) (Phoenix Pharmaceuticals, Burlingame, CA) or vehicle serum-free DMEM. Cells were incubated with the treatments for 3 hours at 37° C., 5% CO2, then rested 30 minutes at room temperature for equilibration, after which 65 μL/well of substrate AMPLITE™ Luciferase Reporter Gene Assay Kit (AAT Bioquest, Sunnyvale, CA) was added. Plates were incubated for 40 minutes at room temperature protected from light, and then luciferase output was read on a CLARIOstar plate reader (BMG Labtech, Germany). […]

primary HCO cells = assay: OsteoImage mineralization assay in primary HCO cells; type: cell-based, human; conditions: 14 days
Description: The biological activity of the RXFP2 agonists was tested in primary HCO cells (ScienCell Research Laboratories, San Diego, CA) by measuring their ability to induce osteoblast mineralization. A fluorescent-based assay (OSTEOIMAGE™ Mineralization Assay, Lonza, Switzerland) was used that measures hydroxyapatite, which is the main mineral component of bone. For this assay, HCO cells were seeded in 0.1% gelatin-coated 96 well black-walled flat-bottom clear plates at 7,000 cells/well in 100 μL/well of growth medium (DMEM, 10% FBS, 1× Pen/Strep) and allowed to attach overnight at 37° C. and 5% CO2. The next day, growth medium was changed to 100 μL/well of mineralization medium (growth medium+10 mM β-glycerophosphate, 50 μg/ml ascorbic acid, 10 nM dexamethasone), along with the respective treatments. Cells were treated with 1 μL/well of compound (1, 3, or 5 μM) or vehicle (serum-free DMEM, 0.05% DMSO). Medium and treatments were replaced every 2-3 days and cells were incubated at 37° C. and 5% CO2 for 14 days. Hydroxyapatite deposits were evaluated using the OSTEOIMAGE™ Mineralization Assay (Lonza, Switzerland). At treatment day 14, cells were rested 30 minutes at room temperature for equilibration, washed with 200 μL/well PBS, and fixed in 100 μL/well 4% formaldehyde for 15 minutes. Cells were washed once with 200 μL/well assay wash buffer and 100 μL/well of assay staining reagent was added as per manufacturer's protocol. Cells were incubated at room temperature for 30 minutes, protected from light. After staining, cells were washed 3 times with 200 μL/well wash buffer and wells were filled with a final 200 μL/well wash buffer. Mineralization was quantified using a CLARIOstar plate reader (BMG Labtech, Germany) and representative images of the hydroxyapatite bone-like nodules were captured using a fluorescence microscope (Nikon Eclipse TS100 attached to an Olympus DP70 camera). […] Mineralization activity induced by compounds was normalized to DMSO vehicle as 100% mineralization. […]

RXFP2 [2] = target: T1, RXFP2; assay: HTRF cAMP assay in HEK293T cells stably expressing RXFP2 (HEK-RXFP2); type: cell-based; conditions: for % EFF vs. 100 nM INSL3 (c): normalized to 100 nM INSL3 cAMP response
Outline: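 HEK-RXFP2 cells in serum-free DMEM were treated with compound up to 25 μM for 1 h at 37°C, and cAMP was read by HTRF immunoassay. Condition (a): 20,000 cells/well, 200 μM IBMX, normalized to 1 nM INSL3. Condition (b): 10,000 cells/well, 1 nM INSL3. Condition (c): 7,500 cells/well, no IBMX, 100 nM INSL3.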

[3] = condition (c): 7,500 cells/well, IBMX omitted

Row | SMILES | EC50 (RXFP2 [1]; 25 μM-[…]) | Emax (% Eff vs. 10 nM INSL3) (RXFP2 [1]) | mineralization (hydroxyapatite) vs. DMSO vehicle (primary HCO cells; 1, 3, or 5 μM) | activity in the HTRF cAMP screen (RXFP2 [2]; compared with Examples 187, 158, 153) | EC50 (RXFP2 [2]; condition (b): 10,000 cells/well, IBMX 200 μM) | % EFF vs. 1 nM INSL3 (b) (RXFP2 [2]; condition (b): 10,000 cells/well, IBMX 200 μM, normalized to 1 nM INSL3 cAMP response) | EC50 (RXFP2 [2]; [3]) | % EFF vs. 100 nM INSL3 (c) (RXFP2 [2]; [3]) | EC50 (RXFP2 [1]; 25 μM-0.21 nM) | RXFP2 agonist activity (RXFP2 [1]; luciferase cAMP assay) | mineralization (hydroxyapatite) vs. DMSO vehicle (primary HCO cells; 5 μM)
1 | O=C1Nc2ccc(-c3cccc(C(F)(F)F)c3)cc2C(=O)N2CCN(C(=O)COc3ccc(OC(F)(F)F)cc3Br)C[C@@H]12 [Example 123, (S)-2-(2-(2-bromo-4-(trifluoromethoxy)phenoxy)acetyl)-8-(3-(trifluoromethyl)phenyl)-1,3,4,12a-tetrahydrobenzo[e]pyrazino[1,2-a][1,4]diazepine-6,12 (2H, 11H)-dione] | 0.0585 µM | 117.1% | does not seem to increase mineralization | weaker activity | 0.018 to 0.0233 µM | 113.66-166.88% | 0.0462 to 0.0737 µM | 38.35-49.8% |  |  | 
2 | O=C1Nc2ccc(-c3cc(C(F)(F)F)cc(C(F)(F)F)c3)cc2C(=O)N2CCN(C(=O)COc3ccc(OC(F)(F)F)cc3Br)C[C@@H]12 [Example 158, (S)-8-(3,5-Bis(trifluoromethyl)phenyl)-2-(2-(2-bromo-4-(trifluoromethoxy)phenoxy)acetyl)-1,3,4,12a-tetrahydrobenzo[e]pyrazino[1,2-a][1,4]diazepine-6,12 (2H, 11H)-dione] |  | 105.5% |  |  |  |  | 0.167 to 1.57 µM | 48.99-81.93% | 0.0258 µM | potent RXFP2 agonists | significant increase
3 | O=C1Nc2ccc(-c3cc(C(F)(F)F)cc(C(F)(F)F)c3)cc2C(=O)N2CCN(C(=O)COc3ccc(OC(F)(F)F)cc3I)C[C@@H]12 [Example 187, (S)-8-(3,5-bis(trifluoromethyl)phenyl)-2-(2-(2-iodo-4-(trifluoromethoxy)phenoxy)acetyl)-1,3,4,12a-tetrahydrobenzo[e]pyrazino[1,2-a][1,4]diazepine-6,12 (2H, 11H)-dione] |  |  |  |  |  |  | 0.128 to 0.568 µM | 87.28-147.65% |  |  | significant increase
